Test results: patent EP4578449A1, “PHARMACEUTICAL COMBINATION OF FAK INHIBITOR AND MICROTUBULE INHIBITOR AND USE THEREOF” (Inxmed (Nanjing) Co., Ltd., priority 2022, dated 2024)

How the values were obtained:
Format in all cases: cell-based
MDA-MB-231 cells [1] = experiment: FAK silencing combined with Eribulin, Annexin V apoptosis by flow cytometry; conditions: MDA-MB-231 cells transfected with FAK siRNA 50 nM for 24 hours, then 0.15 µM Eribulin 48 hours; FAK silencing group compared with control group
Description: (§1) • 1. FAK silencing combined with Eribulin promotes apoptosis of breast cancer cells MDA-MB-231 The siRNA technology was used in the in vitro assays to reduce the expression level of FAK, and combined with Eribulin for 48 hours; flow cytometry was used to detect apoptosis in control and FAK silenced cells. • 2. FAK silencing combined with Eribulin can effectively promote the production of ICD in breast cancer cells MDA-MB-231 The siRNA technology was used in the in vitro assay to reduce the expression level of FAK, and combined with Eribulin for 48 hours. Flow cytometry was used to detect the expression of Calreticulin, the main target of ICD.
(§2) Recombinant Alexa Fluor® 647 fluorescent Anti-Calreticulin antibody (Abcam, ab196159), Annexin V apoptosis detection kit (Invitrogen, A35110).
(§3) FAK siRNA was provided by Gene Pharma, and the sequence is shown in the following table: • F: […]; • R: […] • Assay instruments: Fluorescence microscope (Olympus U-HGLGPS). Chemiluminescence imager (BIORAD chemidoc touch).
(§4) • 1. […] The cells were stained using Annexin V kit and detected by flow cytometry. The early and late apoptosis values were counted, compared with those of the DMSO control group, and plotted using Graphpad 8.0. […] The cells were fluorescent stained with Calreticulin antibody, and the staining results were analyzed by flow cytometry.

MDA-MB-231 cells [2] = experiment: FAK silencing combined with Eribulin, Calreticulin (ICD target) by flow cytometry; conditions: MDA-MB-231 cells transfected with FAK siRNA 50 nM for 24 hours, then 0.15 µM Eribulin 48 hours; vs control siRNA
Description: as §1, §2, §3, §4

[3] = tested on: mouse breast cancer 4T1 cells; experiment: Eribulin and IN10018: microscopy and CRT/Annexin-V/PI and GRP94 flow cytometry; conditions: 48 hours, IN10018 5 µM, Eribulin 0.15 µM or 0.45 µM, alone or combined
Description: 4T1 cells were cultured in monolayer in vitro under the following conditions: RPMI-1640 medium with 10% fetal bovine serum, 37 °C, 5% CO2. Trypsin was used for routine digestion and passage treatment two to three times a week. When the cells were in the exponential growth phase and the adherent confluence reached 80%-90%, the cells were harvested and plated.
4T1 cells were digested with trypsin and then collected and counted. Based on the counting results, the cells were diluted with RPMI-1640+10% FBS to a concentration of 50,000 cells per milliliter. Then the cells were plated in 12-well cell culture plates, with 2 ml of cell suspension per well, i.e., 100,000 cells. After plating, the cells were cultured in a 37°C and 5% CO2 incubator.
(§5) After 24 hours of plating, test compounds IN10018 and Eribulin were added to different wells, respectively.
(§6) After 48 hours of drug action, the cells were photographed using a microscope, and then trypsinized and collected for flow cytometry staining.
The cells were washed twice with flow buffer (DPBS + 2% FBS), and each group of cells was divided into two equal parts. In one part, 0.5 µL of AF647 Anti-Calreticulin Antibody was added to each well, and mixed. The cells were incubated at 4°C in the dark for 20 min. […]
(§7) After the assay, the cell positive rate was analyzed by Flowjo (V10) software.

[4] = tested on: human ovarian epithelial carcinoma TOV-21G cells; experiment: Eribulin and IN10018: microscopy and CRT/Annexin-V/PI flow cytometry; conditions: 48 hours, IN10018 10 µM, Eribulin 0.045 µM, alone or combined
Description: (§8) ID8 cells and TOV-21G cells were cultured in monolayer in vitro. ID8 cells were cultured in DMEM medium with 10% fetal bovine serum. TOV-21G cells were cultured in RPMI-1640 medium with 10% fetal bovine serum. Both were cultured in a 37 °C, 5% CO2 incubator. Trypsin was used for routine digestion and passage treatment two to three times a week. When the cells were in the exponential growth phase and the adherent confluence reached 80%-90%, the cells were harvested and plated.
(§9) ID8 cells and TOV-21G cells were digested with trypsin and then collected and counted. Based on the counting results, the cells were diluted with the corresponding complete culture medium to a concentration of 50,000 cells per milliliter. Then the cells were plated in 12-well cell culture plates, with 2 ml of cell suspension per well, i.e., 100,000 cells.
(§10) After plating, the cells were cultured in a 37°C and 5% CO2 incubator.
as §5, §6
(§11) The cells were washed twice with flow buffer (DPBS + 2% FBS). 0.5 µL of AF647 Anti-Calreticulin Antibody was added to each well, and mixed. The cells were incubated at 4°C in the dark for 20 min. After washing once with flow buffer, 195 µL of Annexin-V-FITC binding solution was added, and the cells were gently mixed well. 5 µL of Annexin-V-FITC antibody was added. After further mixing, 10 µL of PI dye was added and mixed well. The cells were incubated at room temperature in the dark for 15 min. The cells were then subjected to flow cytometry.
as §7

[5] = tested on: mouse ovarian epithelial carcinoma ID8 cells; experiment: as above; conditions: 48 hours, IN10018 10 µM, Eribulin 0.045 µM, alone or combined
Description: as §8, §9, §10, §5, §6, §11, §7

[6] = tested on: mouse colon cancer CT26 cells; experiment: Docetaxel/Eribulin/Paclitaxel and Defactinib: microscopy and CRT/Annexin-V/PI flow cytometry; conditions: 48 hours, Defactinib 5 µM, Docetaxel 0.3 µM, Eribulin 0.3 µM, Paclitaxel 6 µM, alone or combined with Defactinib
Description: CT26 cells were cultured in monolayer in vitro under the following conditions: RPMI-1640 medium with 10% fetal bovine serum, 37°C, 5% CO2. Trypsin was used for routine digestion and passage treatment two to three times a week. When the cells were in the exponential growth phase and the adherent confluence reached 80%-90%, the cells were harvested and plated.
CT26 cells were digested with trypsin, and then the cells were collected and counted. Based on the counting results, the cells were diluted with the corresponding complete culture medium to a concentration of 50,000 cells per milliliter. Then the cells were plated in 12-well cell culture plates, with 2 ml of cell suspension per well, i.e., 100,000 cells.
as §10
After 24 hours of plating, the test compounds Docetaxel, Eribulin, Paclitaxel and Defactinib were added to different wells, respectively.
as §6
The cells were washed twice with flow buffer (DPBS + 2% FBS). 0.5 µL of AF647 Anti-Calreticulin Antibody was added to each well, and mixed well. The cells were incubated at 4°C in the dark for 20 min. After washing once with flow buffer, 195 µL of Annexin-V-FITC binding solution was added, and the cells were gently mixed well. 5 µL of Annexin-V-FITC antibody was added. After further mixing, 10 µL of PI dye was added and mixed well. The cells were incubated at room temperature in the dark for 15 min. The cells were then subjected to flow cytometry.
as §7

[7] = tested on: mouse breast cancer 4T1 cells; experiment: Docetaxel/Eribulin and Defactinib: microscopy and CRT/Annexin-V/PI flow cytometry; conditions: 48 hours, Defactinib 5 µM, Docetaxel 0.3 µM, Eribulin 0.1 µM, alone or combined with Defactinib
Description: 4T1 cells were cultured in a monolayer in vitro in RPMI-1640 medium with 10% fetal bovine serum in a 37 °C, 5% CO2 incubator. Trypsin was used for routine digestion and passage treatment two to three times a week. When the cells were in the exponential growth phase and the adherent confluence reached 80%-90%, the cells were harvested and plated.
4T1 cells were digested with trypsin, and then the cells were collected and counted. Based on the counting results, the cells were diluted with the corresponding complete culture medium to a concentration of 50,000 cells per milliliter. Then the cells were plated in 12-well cell culture plates, with 2 ml of cell suspension per well, i.e., 100,000 cells.
as §10
After 24 hours of plating, the test compounds Defactinib, Docetaxel and Eribulin were added to different wells, respectively.
as §6
The cells were washed twice with flow buffer (DPBS + 2% FBS). 0.5 µL of AF647 Anti-Calreticulin Antibody was added to each well, and mixed well. The cells were incubated at 4°C in the dark for 20 min. […]
as §7

C=C1C[C@@H]2CC[C@@]34C[C@H]5O[C@H]6[C@@H](O3)[C@H]3O[C@H](CC[C@@H]3O[C@H]6[C@H]5O4)CC(=O)C[C@@H]3[C@@H](OC)[C@@H](C[C@H](O)CN)O[C@H]3C[C@H]3O[C@@H](CC[C@@H]1O2)C[C@@H](C)C3=C [Eribulin]
significantly enhanced: early and late apoptosis (Annexin V kit) (MDA-MB-231 cells [1]) | release and exposure of Calreticulin (MDA-MB-231 cells [2])
obvious: cell status (cell death / cell viability) under a microscope [3] | cell status (cell death / cell viability) under a microscope [4] | cell status (cell death / cell viability) under a microscope [5] | cell status (cell death) under a microscope [6] | cell status (cell death) under a microscope [7]
